# In PubChem BioAssay (NCI):
#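 48-hour exposure; five concentrations; linearly interpolated endpoints. GI50 = concentration required for 50% inhibition of growth. TGI: total growth inhibition.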
# Tests used:
# Test in all cases: NCI tumour cell line growth inhibition, 48 h
# [1] = system: KM12 colon
# [2] = system: A498 renal
# [3] = system: T-47D breast
# [4] = system: HL-60(TB) leukemia
# [5] = system: A549 NSCLC
# [6] = system: DU-145 prostate
# [7] = system: SF-268 CNS
# [8] = system: OVCAR-3 ovarian
# [9] = system: SK-MEL-28 melanoma
# [10] = system: SK-MEL-5 melanoma
# [11] = system: HCC-2998 colon
# [12] = system: MALME-3M melanoma
# [13] = system: LOX IMVI melanoma
# [14] = system: U251 CNS
# [15] = system: NCI-H522 lung
# [16] = system: HOP-62 NSCLC
# [17] = system: NCI-H226 lung
# [18] = system: SNB-75 CNS
# [19] = system: RXF 393 renal
# [20] = system: SF-539 CNS
# [21] = system: M14 melanoma
# [22] = system: SW-620 colon
# [23] = system: NCI-H23 lung
# [24] = system: MCF7 breast
# [25] = system: EKVX NSCLC
# [26] = system: OVCAR-8 ovarian
# [27] = system: 786-0 renal
# [28] = system: HS 578T breast
# [29] = system: SF-295 CNS
# [30] = system: UO-31 renal
# [31] = system: SNB-19 CNS
# [32] = system: HT29 colon
# [33] = system: HCT-116 colon
# [34] = system: SK-OV-3 ovarian
# [35] = system: UACC-257 melanoma
# [36] = system: MDA-MB-435
# [37] = system: COLO 205 colon
# [38] = system: NCI/ADR-RES ovarian
# [39] = system: OVCAR-5 ovarian
# [40] = system: CAKI-1 renal
# [41] = system: RPMI-8226 leukemia
# [42] = system: MDA-MB-231 breast
# [43] = system: HCT-15 colon
# [44] = system: K-562 leukemia
# [45] = system: TK-10 renal
# [46] = system: MOLT-4 leukemia
# [47] = system: UACC-62 melanoma
# [48] = system: NCI-H460 lung
# [49] = system: IGROV1 ovarian
# [50] = system: CCRF-CEM leukemia
# [51] = system: ACHN renal
# [52] = system: SR leukemia
# [53] = system: OVCAR-4 ovarian
smiles,measurement,setting,value
COc1ccc(Cl)cc1Nc1nc(C(F)(F)F)ccc1C(=O)N/N=C/c1ccc([N+](=O)[O-])cc1,GI50,[1],1.79 µM
same,TGI,[1],4.98 µM
same,GI50,[2],1.86 µM
same,TGI,[2],6.45 µM
same,GI50,[3],1.81 µM
same,TGI,[3],7.75 µM
same,GI50,[4],2.14 µM
same,TGI,[4],7.18 µM
same,GI50,[5],3.41 µM
same,TGI,[5],52.7 µM
same,GI50,[6],1.27 µM
same,TGI,[6],3.21 µM
same,GI50,[7],1.69 µM
same,TGI,[7],5.8 µM
same,GI50,[8],1.25 µM
same,TGI,[8],3.78 µM
same,GI50,[9],2.79 µM
same,TGI,[9],> 100 µM
same,GI50,[10],1.98 µM
same,TGI,[10],4.86 µM
same,GI50,[11],1.29 µM
same,TGI,[11],7.27 µM
same,GI50,[12],2.3 µM
same,TGI,[12],5.59 µM
same,GI50,[13],1.39 µM
same,TGI,[13],4.79 µM
same,GI50,[14],2.06 µM
same,TGI,[14],6.63 µM
same,GI50,[15],1.62 µM
same,TGI,[15],4.77 µM
same,GI50,[16],2.35 µM
same,TGI,[16],11.4 µM
same,GI50,[17],2.01 µM
same,TGI,[17],8.65 µM
same,GI50,[18],2.21 µM
same,TGI,[18],12.9 µM
same,GI50,[19],1.28 µM
same,TGI,[19],6.04 µM
same,GI50,[20],3.05 µM
same,TGI,[20],19.1 µM
same,GI50,[21],1.6 µM
same,TGI,[21],5.41 µM
same,GI50,[22],2.77 µM
same,TGI,[22],> 100 µM
same,GI50,[23],2.05 µM
same,TGI,[23],7.52 µM
same,GI50,[24],2.2 µM
same,TGI,[24],7.85 µM
same,GI50,[25],2.01 µM
same,TGI,[25],9.27 µM
same,GI50,[26],2.77 µM
same,TGI,[26],62.2 µM
same,GI50,[27],1.92 µM
same,TGI,[27],9.27 µM
same,GI50,[28],2.57 µM
same,TGI,[28],62.9 µM
same,GI50,[29],1.17 µM
same,TGI,[29],3.79 µM
same,GI50,[30],1.77 µM
same,TGI,[30],5.97 µM
same,GI50,[31],2.33 µM
same,TGI,[31],13 µM
same,GI50,[32],2.2 µM
same,TGI,[32],5.49 µM
same,GI50,[33],2.45 µM
same,TGI,[33],14.7 µM
same,GI50,[34],1.73 µM
same,TGI,[34],5.77 µM
same,GI50,[35],2.92 µM
same,TGI,[35],8.7 µM
same,GI50,[36],2.66 µM
same,TGI,[36],13.1 µM
same,GI50,[37],1.65 µM
same,TGI,[37],3.58 µM
same,GI50,[38],2.25 µM
same,TGI,[38],6.7 µM
same,GI50,[39],1.73 µM
same,TGI,[39],7.59 µM
same,GI50,[40],1.46 µM
same,TGI,[40],4.74 µM
same,GI50,[41],1.6 µM
same,TGI,[41],6.55 µM
same,GI50,[42],1.49 µM
same,TGI,[42],4.38 µM
same,GI50,[43],1.29 µM
same,TGI,[43],5.11 µM
same,GI50,[44],2.95 µM
same,TGI,[44],12.6 µM
same,GI50,[45],1.22 µM
same,TGI,[45],5.88 µM
same,GI50,[46],3.82 µM
same,TGI,[46],13.2 µM
same,GI50,[47],2.17 µM
same,TGI,[47],6.77 µM
same,GI50,[48],1.9 µM
same,TGI,[48],4.86 µM
same,GI50,[49],2.56 µM
same,TGI,[49],6.49 µM
same,GI50,[50],30.8 µM
same,TGI,[50],> 100 µM
same,GI50,[51],2.18 µM
same,TGI,[51],5.42 µM
same,GI50,[52],1.76 µM
same,TGI,[52],4.95 µM
same,GI50,[53],0.979 µM
same,TGI,[53],7.68 µM
